Laboratory results: patent publication US20250059174A1, “Pharmaceutical Compounds and Compositions as C-Kit Kinase Inhibitors” (Enanta Pharmaceuticals, Inc., priority 2023, published 2025)

Columns and labels:
[1] = target: Recombinant human c-KIT kinase (Homo sapiens (Human), UniProt P10721); assay: c-KIT kinase chemiluminescence assay (ADP-Glo); assay type: biochemical; conditions: ATP 50 μM
Procedure: The c-KIT Kinase Enzyme System (V4498) and ADP-Glo™ Kinase Assay kit (V6930) were purchased from Promega (Madison, WI). DMSO (D2650) was purchased from Sigma-Aldrich (Burlington, MA).
Kinase Reaction: The kinase assay was based on the recommended protocol by c-KIT Kinase Enzyme System from Promega. Recombinant human c-KIT kinase in 3 μL of assay buffer (40 mM Tris pH 7.5, 20 mM MgCl2, 0.1 mg/mL BSA and 50 μM DTT) was added to the test or high control wells and 3 μL of assay buffer was added to the low control wells. The microplate was centrifuged at 800 rotations per minute (rpm) for 60 s and incubated at room temperature (RT) for 30 min. Next, 2 μL of buffered ATP and polyEY substrate solution was added to all wells. The microplate was centrifuged at 800 rpm for 60 s and incubated at RT for 2 h.
ADP detection with ADP-Glo™ Kinase Assay: After the kinase reaction incubation, 5 μL of ADP-Glo™ reagent was added to all wells. The microplate was centrifuged at 800 rpm for 60 s and incubated at RT for 40 min. Ten microliter (10 μL) of Kinase Detection Reagent (Luciferin-Luciferase system) was then added to all wells. The microplate was centrifuged at 800 rpm for 60 s and incubated at RT for 60 min. Kinase activity was measured as increase in luminescence at RT in an Envision plate reader equipped with 560 nm filters and operating in endpoint mode. Data Analysis: Endpoint chemiluminescence from high and low control wells were used to calculate normalized c-KIT activity at various concentrations of test compounds. The normalized activities were fitted to inhibitor-versus-normalized response fit in GraphPad Prism 7 to determine half-maximal inhibitory concentration (IC50) and hill coefficient values (H).
Where I is the inhibitor concentration and H is the Hill coefficient.

M-07e cells = assay: M-07e cellular assay (SCF-mediated cell proliferation); assay type: cell-based; conditions: Homo sapiens, 72 hours, CellTiter Glo
Procedure: M-07e cells (Creative Bioarray, CSC-C0249) which endogenously express human c-KIT were used to evaluate the effect of compounds on stem cell factor (SCF)-mediated cell proliferation. M-07e cells were cultured in growth media (RPMI+10% FBS+1% penicillin/streptomycin+10 ng/mL GM-CSF) at 5E5-1.5E6 cells/mL, replenishing media every 3-4 days. 1.5E4 cells were seeded per well in 384 well tissue culture treated plates in 20 μL assay media (RPMI+[…]+1% penicillin/streptomycin) without growth factor stimulation and incubated at 37° C. in a CO2 humidity-controlled incubator. Twenty-four hours later, three-fold serially diluted test compounds in media containing SCF (at the previously determined EC90) were added to the plated M-07e cells and incubated for an additional 72 hours. Cell viability was determined by adding 25 μL CellTiter Glo (Promega) to the cells and the luminescence was measured using a Perkin Elmer Envision plate reader. The EC50 was determined using GraphPad Prism. Percent cell growth was determined after normalizing the curve to the mean RLU high control (no compound control wells) at 100% and the mean RLU low control (no SCF control wells) at 0%.

Sequence of Recombinant human c-KIT kinase (P10721 26-976): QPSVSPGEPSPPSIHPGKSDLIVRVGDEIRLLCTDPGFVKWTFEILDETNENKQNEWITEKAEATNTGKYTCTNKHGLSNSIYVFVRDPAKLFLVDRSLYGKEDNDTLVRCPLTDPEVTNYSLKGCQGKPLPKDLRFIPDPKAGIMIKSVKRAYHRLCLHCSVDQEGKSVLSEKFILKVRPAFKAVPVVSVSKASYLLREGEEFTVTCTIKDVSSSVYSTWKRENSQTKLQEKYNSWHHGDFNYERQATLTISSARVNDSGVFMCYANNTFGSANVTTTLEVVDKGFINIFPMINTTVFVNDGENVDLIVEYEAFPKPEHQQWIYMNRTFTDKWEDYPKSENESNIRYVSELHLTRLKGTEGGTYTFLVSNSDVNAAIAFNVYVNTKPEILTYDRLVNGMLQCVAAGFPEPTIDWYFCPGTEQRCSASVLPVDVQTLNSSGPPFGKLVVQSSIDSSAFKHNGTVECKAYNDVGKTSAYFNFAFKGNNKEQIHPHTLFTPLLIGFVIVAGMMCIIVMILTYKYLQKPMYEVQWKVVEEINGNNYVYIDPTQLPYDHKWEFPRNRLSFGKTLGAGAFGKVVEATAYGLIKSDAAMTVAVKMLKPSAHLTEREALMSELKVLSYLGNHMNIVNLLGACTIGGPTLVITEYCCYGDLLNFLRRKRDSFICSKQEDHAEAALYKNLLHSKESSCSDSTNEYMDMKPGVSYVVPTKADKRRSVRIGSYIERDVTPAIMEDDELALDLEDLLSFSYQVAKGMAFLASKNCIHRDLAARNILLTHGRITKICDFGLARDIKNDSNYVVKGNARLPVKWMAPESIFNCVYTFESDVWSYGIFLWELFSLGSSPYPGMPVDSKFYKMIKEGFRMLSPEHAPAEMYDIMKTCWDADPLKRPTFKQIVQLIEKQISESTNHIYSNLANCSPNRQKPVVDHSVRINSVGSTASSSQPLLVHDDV

COc1ccc2c(C(=O)Nc3cc(-c4noc([C@H]5C[C@@H]5F)n4)ccc3C)cnn2c1 [Example 58]
IC50 [1]: < 100 nM
EC50 (M-07e cells): < 100 nM

Cc1ccc(-c2noc([C@H]3C[C@@H]3F)n2)cc1NC(=O)c1cnn2ccc(Cl)cc12 [Example 59]
IC50 [1]: < 100 nM
EC50 (M-07e cells): 100 to 1000 nM

COc1ccn2ncc(C(=O)Nc3cc(-c4noc([C@H]5C[C@@H]5F)n4)ccc3C)c2c1 [Example 60]
IC50 [1]: < 100 nM
EC50 (M-07e cells): < 100 nM

Cc1ccc2c(C(=O)Nc3cc(-c4noc([C@H]5C[C@@H]5F)n4)ccc3C)cnn2c1 [Example 61]
IC50 [1]: < 100 nM
EC50 (M-07e cells): < 100 nM

Cc1ccc(-c2noc([C@H]3C[C@@H]3F)n2)cc1NC(=O)c1cnn2cc(F)c(Br)cc12 [Example 62]
IC50 [1]: 100 to 1000 nM
EC50 (M-07e cells): > 1000 nM

C/C=C/c1ccn2ncc(C(=O)Nc3cc(-c4noc([C@H]5C[C@@H]5F)n4)ccc3C)c2c1 [Example 69]
IC50 [1]: < 100 nM
EC50 (M-07e cells): < 100 nM

Cc1ccc(-c2noc([C@H]3C[C@@H]3F)n2)cc1NC(=O)c1cnn2ccc(CN3CCOCC3)cc12 [Example 70]
IC50 [1]: < 100 nM
EC50 (M-07e cells): 100 to 1000 nM

Cc1ccc(-c2noc([C@H]3C[C@@H]3F)n2)cc1NC(=O)c1cnn2ccc(C=O)cc12 [Example 71]
IC50 [1]: < 100 nM
EC50 (M-07e cells): 100 to 1000 nM

Cc1ccc(-c2noc([C@H]3C[C@@H]3F)n2)cc1NC(=O)c1cnn2ccc(CO)cc12 [Example 72]
IC50 [1]: < 100 nM
EC50 (M-07e cells): 100 to 1000 nM

Cc1ccc(-c2noc([C@H]3C[C@@H]3F)n2)cc1NC(=O)c1cnn2cc(Cl)c(Br)cc12 [Example 73]
IC50 [1]: > 1000 nM
EC50 (M-07e cells): > 1000 nM

Cc1ccc(-c2noc([C@H]3C[C@@H]3F)n2)cc1NC(=O)c1cnn(-c2cccc(N)c2)c1 [Example 74]
IC50 [1]: 100 to 1000 nM
EC50 (M-07e cells): > 1000 nM

Cc1ccc(-c2noc([C@H]3C[C@@H]3F)n2)cc1NC(=O)c1cnc(-c2ccccc2)o1 [Example 85]
IC50 [1]: 100 to 1000 nM
EC50 (M-07e cells): 100 to 1000 nM

Cc1ccc(-c2noc([C@H]3C[C@@H]3F)n2)cc1NC(=O)c1cnn2ccc(NC(=O)OC(C)(C)C)cc12 [Example 90]
IC50 [1]: 100 to 1000 nM
EC50 (M-07e cells): 100 to 1000 nM

Cc1ccc(-c2noc([C@H]3C[C@@H]3F)n2)cc1NC(=O)c1cnn2ccc(N)cc12 [Example 92]
IC50 [1]: < 100 nM
EC50 (M-07e cells): < 100 nM

Cc1ccc(-c2noc([C@H]3C[C@@H]3F)n2)cc1NC(=O)c1cnn2ccc(NC(=O)c3ccccc3)cc12 [Example 93]
IC50 [1]: 100 to 1000 nM
EC50 (M-07e cells): 100 to 1000 nM

Cc1ccc(-c2noc([C@H]3C[C@@H]3F)n2)cc1NC(=O)c1cnn2ccc(NC(=O)OC3CC3)cc12 [Example 94]
IC50 [1]: 100 to 1000 nM
EC50 (M-07e cells): 100 to 1000 nM

Cc1ccc(-c2noc([C@H]3C[C@@H]3F)n2)cc1NC(=O)c1cnn2ccc(NC(=O)OCc3ccccc3)cc12 [Example 95]
IC50 [1]: 100 to 1000 nM
EC50 (M-07e cells): 100 to 1000 nM

Cc1ccc(-c2noc([C@H]3C[C@@H]3F)n2)cc1NC(=O)c1cnn2ccc(NC(=O)NC3CC3)cc12 [Example 96]
IC50 [1]: 100 to 1000 nM
EC50 (M-07e cells): 100 to 1000 nM

Cc1ccc(-c2noc([C@H]3C[C@@H]3F)n2)cc1NC(=O)c1cn2ncsc2n1 [Example 97]
IC50 [1]: > 1000 nM
EC50 (M-07e cells): > 1000 nM

Cc1nc(Nc2ncc(C(=O)Nc3cc(-c4noc([C@H]5C[C@@H]5F)n4)ccc3C)s2)cc(N2CC3(COC3)C2)n1 [Example 98-1]
IC50 [1]: < 100 nM
EC50 (M-07e cells): < 100 nM

CC(=O)NC1CN(c2ncc(C(=O)Nc3cc(-c4noc([C@H]5C[C@@H]5F)n4)ccc3C)s2)C1 [Example 98-2]
IC50 [1]: > 1000 nM
EC50 (M-07e cells): > 1000 nM

Cc1ccc(-c2noc([C@H]3C[C@@H]3F)n2)cc1NC(=O)c1cnc(N2CC(C(=O)OC(C)(C)C)C2)s1 [Example 98-3]
IC50 [1]: > 1000 nM
EC50 (M-07e cells): > 1000 nM

Cc1ccc(-c2noc([C@H]3C[C@@H]3F)n2)cc1NC(=O)c1cnc(N2CC(C(=O)NC3CC3)C2)s1 [Example 98-5]
IC50 [1]: > 1000 nM
EC50 (M-07e cells): > 1000 nM

Cc1ccc(-c2noc([C@H]3C[C@@H]3F)n2)cc1NC(=O)c1ccc2c(c1)CC(=O)N2 [Example 98-6]
IC50 [1]: > 1000 nM
EC50 (M-07e cells): > 1000 nM

Cc1ccc(-c2noc([C@H]3C[C@@H]3F)n2)cc1NC(=O)c1ccc2[nH]c(=O)[nH]c2c1 [Example 98-7]
IC50 [1]: > 1000 nM
EC50 (M-07e cells): > 1000 nM

Cc1ccc(-c2noc([C@H]3C[C@@H]3F)n2)cc1NC(=O)c1cnc(N2CCC3(CCC(=O)N3)CC2)s1 [Example 98-8]
IC50 [1]: > 1000 nM
EC50 (M-07e cells): > 1000 nM

Cc1ccc(-c2noc([C@H]3C[C@@H]3F)n2)cc1NC(=O)c1cnn(-c2ccccc2)c1C [Example 98]
IC50 [1]: > 1000 nM
EC50 (M-07e cells): > 1000 nM

Cc1ccc(-c2noc([C@H]3C[C@@H]3F)n2)cc1NC(=O)c1cnc2n1CCc1ccccc1-2 [Example 100]
IC50 [1]: < 100 nM
EC50 (M-07e cells): 100 to 1000 nM

Cc1ccc(-c2noc([C@H]3C[C@@H]3F)n2)cc1NC(=O)c1cnc2n1C(C)c1ccccc1-2 (stereo partly shown) [Example 102]
IC50 [1]: < 100 nM
EC50 (M-07e cells): 100 to 1000 nM

C=CCC1c2ccccc2-c2ncc(C(=O)Nc3cc(-c4noc([C@H]5C[C@@H]5F)n4)ccc3C)n21 (stereo partly shown) [Example 103]
IC50 [1]: 100 to 1000 nM
EC50 (M-07e cells): 100 to 1000 nM

Cc1ccc(-c2noc([C@H]3C[C@@H]3F)n2)cc1NC(=O)c1cnc2n1C(Cc1ccccc1)c1ccccc1-2 (stereo partly shown) [Example 104]
IC50 [1]: > 1000 nM
EC50 (M-07e cells): > 1000 nM

Cc1ccc(-c2noc([C@H]3C[C@@H]3F)n2)cc1NC(=O)c1cnc2n1C(C)(C)c1ccccc1-2 [Example 105]
IC50 [1]: 100 to 1000 nM
EC50 (M-07e cells): 100 to 1000 nM

C#Cc1ccn2ncc(C(=O)Nc3cc(-c4noc([C@H]5C[C@@H]5F)n4)ccc3C)c2c1 [Example 108]
IC50 [1]: < 100 nM
EC50 (M-07e cells): < 100 nM

Cc1ccc(-c2noc([C@H]3C[C@@H]3F)n2)cc1NC(=O)c1cnn2cc(-c3cn(CCO)nn3)ccc12 [Example 109]
IC50 [1]: < 100 nM
EC50 (M-07e cells): < 100 nM

Cc1ccc(-c2noc([C@H]3C[C@@H]3F)n2)cc1NC(=O)c1cnn2ccc(-c3cn(CCO)nn3)cc12 [Example 110]
IC50 [1]: 100 to 1000 nM
EC50 (M-07e cells): < 100 nM

Cc1ccc(-c2noc([C@H]3C[C@@H]3F)n2)cc1NC(=O)c1cnn2ccc(-c3cn(C(F)F)nn3)cc12 [Example 111]
IC50 [1]: 100 to 1000 nM
EC50 (M-07e cells): < 100 nM

Cc1ccc(-c2noc([C@H]3C[C@@H]3F)n2)cc1NC(=O)c1cnn2cc(-c3cn(CC(F)(F)F)nn3)ccc12 [Example 112]
IC50 [1]: < 100 nM
EC50 (M-07e cells): < 100 nM

Cc1ccc(-c2noc([C@H]3C[C@@H]3F)n2)cc1NC(=O)c1cnn2cc(-c3cn(C(F)(F)F)nn3)ccc12 [Example 113]
IC50 [1]: < 100 nM
EC50 (M-07e cells): < 100 nM

Cc1ccc(-c2noc([C@H]3C[C@@H]3F)n2)cc1NC(=O)c1cnn2cc(-c3cn(C4CC4)nn3)ccc12 [Example 114]
IC50 [1]: < 100 nM
EC50 (M-07e cells): < 100 nM

Cc1ccc(-c2noc([C@H]3C[C@@H]3F)n2)cc1NC(=O)c1cnn2cc(-c3cn(C4CC(F)(F)C4)nn3)ccc12 [Example 115]
IC50 [1]: < 100 nM
EC50 (M-07e cells): < 100 nM

COCCn1cc(-c2ccc3c(C(=O)Nc4cc(-c5noc([C@H]6C[C@@H]6F)n5)ccc4C)cnn3c2)nn1 [Example 116]
IC50 [1]: < 100 nM
EC50 (M-07e cells): < 100 nM
